This note sets out measurements from patent US20150299155A1, “Sesquiterpene lactone-based pharmaceutical composition for treating gastrointestinal diseases” (CHO DANG PHARM. CO., LTD., priority 2012, published 2015).

Marks after values point to notes of the source that are not given here.

By ED50 is commonly meant the midpoint of the dose-response relation.

The test system of data set [1] is HCl-Ethanol inducing gastritis model. Put plainly: HCl-Ethanol inducing gastritis model. Conditions: for anti-gastritis efficacy: all administration groups. The format is in vivo, white rats. As for the experimental part:
After white rats have been fasted for 24 hours, CD-101, CD-102 and CD-103 compound have been orally administered according to method disclosed in Mizui et al., Jap. J. Pharmacol. 33: pp. 939-945 (1983). After 1 hour, 1.5 ml of 60% ethanol including 150 mM HCl has been orally administered to each animal. 1 hour later, animals have been sacrificed by cervical dislocation. After removing the stomach, the stomach has been fixed by injection of 13 ml of 2% formalin for 1 hour. After fixed stomach has been spread out, the lesion area has been measured using the photo by digital camera. Computer program Image J 1.38 (NIH, Bethesda, Md.) has been applied for measuring gastric lesion area (mm^2) The lesion inhibition rate has been calculated according to following equation. Further, 50% effective dose (ED50) has been also calculated using regression analysis.
Lesion inhibition rate(%)={gastric lesion area of control group(mm^2)−gastric lesion area of drug administration group(mm^2)}/gastric lesion area of control group(mm^2)×100

Data set [2] has as its system indomethacin inducing stomach ulcer model. The data set can be described thus: Indomethacin inducing stomach ulcer model. The format is in vivo, white rats. To be noted: oral; for anti-stomach ulcer efficacy: all administration groups. As to the method:
After white rats have been fasted for 24 hours, CD-101, CD-102 and CD-103 compound have been orally administered according to method disclosed in Yamasaki et al., Jap. J. Pharmacol. 49: pp. 441-448 (1989). After 1 hour, indomethacin (50 mg/kg) has been orally administered to each animal After fasting for 5 hours, animals have been sacrificed by cervical dislocation. After removing the stomach, the stomach has been fixed by injection of 13 ml of 2% formalin for 1 hour. After fixed stomach has been spread out, the lesion area has been measured using the photo by digital camera. Computer program Image J 1.38 (NIH, Bethesda, Md.) has been applied for measuring gastric lesion area (mm^2) The lesion inhibition rate and 50% effective dose (ED50) have been calculated as the same manner of HCl-EtOH model.

Data set [3] relates to Chinese hamster lung (CHL) cell. The data set can be described thus: Chromosomal aberration test using Chinese hamster lung (CHL) cell. The format is cell-based. Conditions: for induction of chromosomal aberration: CHL cell, overall conclusion. An excerpt:
For measuring the induction of chromosomal aberration, the chromosomal aberration test has been carried out using Chinese hamster lung (CHL) cell. 2 kinds of methods have been adopted, such as, metabolic activation method (+S9) using metabolic activation system and direct method (−S9) without metabolic activation system.
For determining the test material reacting concentration, the cell growth inhibition test has been carried out. The test material has been dissolved and diluted in dimethyl sulfoxide (DMSO). Regardless of metabolic activation system, 12 concentration steps (2.43, 4.87, 9.75, 19.5, 39.1, 78.1, 156.3, 312.5, 625, 1250, 2500, 5000 μg/ml) of test material have been prepared. The cells have been cultured for 24 hours as the same way of main test. […] The medium has been further cultured for 18 hours.
Based upon the data of cell growth inhibition test, maximum concentration has been determined when the cell growth has been inhibited up to 50% as the relative cell numbers.
Regardless of metabolic activation system, the test materials have been prepared after 24 hours from the initiation of test. Then, the number of chromosomal aberration has been counted.

As for `CC1=C2C3OC(=O)[C@@H](C)[C@@H]3CC[C@@]2(C)C=CC1=O` (stereo partly drawn), in data set [1] (Table 2, ineffective compounds, dose not stated), the Lesion inhibition rate entry is on record as “no effect”.
Turning to `C=C1C(=O)O[C@@H]2[C@@H](O)[C@]3(C)CC[C@H]3[C@](C)(OC)CC[C@@H]12` [CD-101], the anti-gastritis efficacy result in data set [1] (oral) was “dose dependent manner”. Moreover, the Lesion inhibition rate in data set [1] (oral, dose 1 mg/kg) came out at 42.3%; in data set [1] (oral, dose 3 mg/kg) it was 74.7%; in data set [1] (oral, dose 10 mg/kg), 91.8%; in data set [2] (dose 1 mg/kg), 26.9%; in data set [2] (dose 3 mg/kg), 56.6%; in data set [2] (dose 10 mg/kg) it was 73.1%. For the same compound, the anti-stomach ulcer efficacy result in data set [2] is “dose dependent manner”. Moreover, the “Chromosomal aberration test Results” value in data set [3] (+S9, dose 10 μg/kg) is recorded as “negative”; in data set [3] (+S9, dose 20 μg/kg), “negative”; in data set [3] (+S9, dose 40 μg/kg) it was “negative”; in data set [3] (−S9, dose 2.5 μg/ml), “negative”; in data set [3] (−S9, dose 5 μg/kg), “negative”; in data set [3] (−S9, dose 10 μg/kg) it was “negative”. Also, the “induction of chromosomal aberration” value in data set [3] is given as “do not induce the chromosomal aberration”.
Turning to `C=C1C(=O)O[C@@H]2[C@@H]3[C@@H](CC[C@@]3(C)O)C(=C)CC[C@@H]12` [CD-102], the ED50 amounted to 1.31 mg/kg in data set [1] (Rattus norvegicus, oral, regression analysis of lesion inhibition, read-out: 50% effective dose (ED50)) and 1.82 mg/kg in data set [2] (Rattus norvegicus, regression analysis of lesion inhibition, read-out: 50% effective dose (ED50)). Also, the anti-gastritis efficacy entry in data set [1] (oral) is listed as “dose dependent manner”. The Gastric lesion area in data set [1] (oral, dose 1 mg/kg) is on record as 133.5 ± 21.0* mm^2; in data set [1] (oral, dose 3 mg/kg), 69.4 ± 18.4* mm^2; in data set [1] (oral, dose 10 mg/kg), 11.9 ± 10.0* mm^2; in data set [2] (dose 1 mg/kg) it was 35.0 ± 5.2 mm^2; in data set [2] (dose 3 mg/kg), 26.3 ± 6.8* mm^2; in data set [2] (dose 10 mg/kg), 13.6 ± 2.9* mm^2. The Lesion inhibition rate in data set [1] (oral, dose 1 mg/kg) came out at 43.0%; in data set [1] (oral, dose 3 mg/kg), 70.4%; in data set [1] (oral, dose 10 mg/kg), 94.9%; in data set [2] (dose 1 mg/kg) it was 41.6%; in data set [2] (dose 3 mg/kg), 56.1%; in data set [2] (dose 10 mg/kg) it was 77.2%. Moreover, the anti-stomach ulcer efficacy result in data set [2] is “dose dependent manner”. Further, the “Chromosomal aberration test Results” value is on record as “negative” in data set [3] (+S9, dose 5 μg/kg); “negative” in data set [3] (+S9, dose 10 μg/kg); “negative” in data set [3] (+S9, dose 20 μg/kg); “negative” in data set [3] (−S9, dose 1.25 μg/kg); “negative” in data set [3] (−S9, dose 2.5 μg/ml); “negative” in data set [3] (−S9, dose 5 μg/kg). For the same compound, in data set [3], the “induction of chromosomal aberration” value is “do not induce the chromosomal aberration”.
In the case of `C=C1C(=O)O[C@@H]2[C@@H]3[C@@H](CC[C@@]3(C)O)[C@](C)(OC)CC[C@@H]12` [CD-103], the anti-gastritis efficacy result in data set [1] (oral) is “dose dependent manner”. Also, the Lesion inhibition rate in data set [1] (oral, dose 1 mg/kg) was determined as 56.9%; in data set [1] (oral, dose 3 mg/kg), 66.9%; in data set [1] (oral, dose 10 mg/kg) it was 99.5%; in data set [1] (oral, dose 30 mg/kg) it was 99.5%; in data set [2] (dose 1 mg/kg) it was 37.9%; in data set [2] (dose 3 mg/kg), 57.3%. In addition, the Lesion inhibition rate in data set [2] (dose 10 mg/kg) stood at 74.0%. Moreover, the “50% effective dose (ED50)” value was 2.55 mg/kg in data set [1] (oral, regression analysis of lesion inhibition) and 2.06 mg/kg in data set [2] (regression analysis of lesion inhibition). Moreover, the anti-stomach ulcer efficacy result in data set [2] is “dose dependent manner”. Further, the “Chromosomal aberration test Results” value in data set [3] (+S9, dose 2.5 μg/ml) is on record as “negative”; in data set [3] (+S9, dose 5 μg/kg), “negative”; in data set [3] (+S9, dose 10 μg/kg) it was “negative”; in data set [3] (−S9, dose 0.625 μg/kg), “negative”; in data set [3] (−S9, dose 1.25 μg/kg), “negative”; in data set [3] (−S9, dose 2.5 μg/ml) it was “negative”. Also, in data set [3], the “induction of chromosomal aberration” value is on record as “do not induce the chromosomal aberration”.
On to `CO[C@@]12[C@H](COC(N)=O)C3=C(C(=O)C(C)=C(N)C3=O)N1C[C@@H]1N[C@@H]12` [Mitomycin C, reference compound], for which, in data set [3] (−S9, dose 0.5 μg/kg), the “Chromosomal aberration test Results” value is “positive”.
On to `O=C(NC(Cc1cc(=O)[nH]c2ccccc12)C(=O)O)c1ccc(Cl)cc1` (stereo not drawn) [Rebamipide, reference compound], for which the Lesion inhibition rate in data set [1] (oral, dose 50 mg/kg) is recorded as 30%; in data set [2] (dose 50 mg/kg) it was 49.6%.
With `C=C1C(=O)O[C@@H]2/C=C(\C)CC/C=C(\C)C[C@@H](OC(C)=O)C12` (stereo partly drawn) [reference compound], the “Chromosomal aberration test Result” value in data set [3] (Table 5, +S9, dose not stated) is “positive positive”; in data set [3] (Table 5, −S9, dose not given), “positive positive”.
On to `C=C1C(=O)O[C@@H]2/C=C(\C)CCC(O)C(C)(O)C[C@@H](OC(C)=O)C12` (stereo partly drawn) [reference compound], for which the “Chromosomal aberration test Result” value is recorded as “positive positive” in data set [3] (Table 5, +S9, dose not stated) and “positive positive” in data set [3] (Table 5, −S9, dose not given).
For `CC(=O)O[C@@H]1/C=C(\C)CCC/C(C)=C/[C@H]2OC(=O)[C@H](CN(C)C)C12` (stereo partly drawn) [reference compound], the “Chromosomal aberration test Result” value was “positive positive” in data set [3] (Table 5, +S9, dose not stated) and “positive positive” in data set [3] (Table 5, −S9, dose not given).
